From US20220378732A1, “SmartCore Compositions and Methods” (NPI, LLC, priority 2020, published 2022)

How the values were obtained:
[1] = test system: T2D mouse model; assay: serum LPC-fatty acid levels after 4 weeks of administration in T2D mouse model; assay type: in vivo, mice; conditions: for serum concentration of LPC-arachidonic acid (AA) / serum concentration of LPC-eicosapentaenoic acid (EPA) / serum concentration of α-linolenic acid (aLA): FIG. 5; for change in serum LPC-18:2 / change in serum LPC-DHA: T2D mouse model, 4 weeks of administration; for change in serum LPC-18:2: FIG. 3; for change in serum LPC-DHA: FIG. 4
Experimental: To validate the inventors' hypotheses on the biological activity of the lignan and methyl donor various animal experiments were performed using mice as test subjects. Diabetes (type 1 and type 2) was used as model disease for LPC deficiency. Type 2 (T2D) diabetic mice were 6-week-old BKS.Cg-Dock7m+/+Leprdb/J (db/db), leptin receptor deficient. Hyperglycemia was confirmed (BG>250 mg/dl). Upon confirmation, all animals were subjected to 4-week treatment as indicated below. Treatment groups were as follows: Control, MSM treatment alone, sesame seed oil treatment alone, and MSM+sesame seed oil treatment. For harvest, serum was collected for lipid panel and analyzed using standard clinical protocol and equipment. Tissues (brain, eyes, heart, liver, kidneys) for fatty acid analysis was frozen at −80° C., and liver sections preserved in formalin for histology. MSM was administered as 1% MSM solution in water: 15-20 ml water was given per ˜25 g mouse per day (6-8 g/kg dose for ˜25 g mouse; 3-5 g/kg dose for ˜40 g mouse). Sesamin was provided as 1.58 mg/mL sesamin in sesame seed oil with 0.12-0.15 mg/g sesamin in mouse food (T1D: 4.4 g food per mouse per day; T2D: 7-8 g food per mouse per day; 20-22 mg/kg dose for mouse (both models)). After 4 weeks of administration of the tested compounds in the T2D mouse model, LPC-18:2 and LPC-DHA were determined from plasma and exemplary results are shown in FIG. 3 and FIG. 4, respectively.

[2] = test system: high-fat diet-induced dyslipidemia; conditions: Nutrients 2016, 8, 276; cited from earlier work
[3] = test system: mice with high-fat diet-induced diabetes; conditions: Exp Physiol 100.11 (2015); cited from earlier work

SMILES | serum concentration of LPC-arachidonic acid (AA) [1] | serum concentration of LPC-eicosapentaenoic acid (EPA) [1] | serum concentration of α-linolenic acid (aLA) [1] | change in serum LPC-18:2 [1] | change in serum LPC-DHA [1] | effect on high-fat diet-induced dyslipidemia and kidney injury [2] | effect on exercise capacity and skeletal muscle mitochondrial function [3]
c1cc2c(cc1[C@H]1OC[C@H]3[C@@H]1CO[C@@H]3c1ccc3c(c1)OCO3)OCO2 [sesamin] | did not result in an increase | did not result in an increase | did not result in an increase | did not trigger a statistically relevant change | did not trigger a statistically relevant change | ameliorating high-fat diet-induced dyslipidemia and kidney injury | prevent decline in exercise capacity and impairment of skeletal muscle mitochondrial function
CS(C)(=O)=O [MSM, methylsulfonylmethane] | did not result in an increase | did not result in an increase | did not result in an increase | did not trigger a statistically relevant change | did not trigger a statistically relevant change |  | 
